Literature values as cited in the CATMoS acute toxicity set (Mansouri et al. 2021).

Test: rat acute oral toxicity
Settings: in vivo
From the text: […]The data set underlying the modeling effort for this project was initially compiled by NICEATM and U.S. EPA’s CCTE. Briefly, LD50 data were collected from rat acute oral systemic toxicity tests, including limit tests, ranges/confidence intervals, and discrete LD50 values. The full data set included 21,200 LD50 entries for 15,688 substances. […] Data were reviewed to ensure that LD50 values with obvious errors in the extracted data such as unit conversion errors (e.g., comma and decimal separator misplacements) were either fixed or removed. After this review, 16,209 LD50 values remained. Many of the chemicals represented had multiple LD50 entries, requiring that a single representative value per Chemical Abstracts Service Registry Number (CASRN) identifier be defined to facilitate modeling efforts. Based on ATWG feedback and to define the representative LD50 as a protective value while accounting for the distribution across multiple LD50s, the median of the lowest quartile was computed using only discrete LD50 values (omitting limit test data and range and confidence interval data). A detailed summary of the data compilation is available online on the NICEATM webpage dedicated to the collaborative modeling project (NTP 2020).
[…][…] For categorical designations, limit test and range/confidence interval LD50 data were integrated wherever possible. As such, the number of chemicals with end point values/calls varies across the modeling end points (Table 3) based on whether chemicals had representative LD50 values and/or other data. If a chemical had both, the representative value was used to determine categorical calls rather than limit test data. Some data were useable only for certain end points and categories depending on the thresholds. For example, ranges that spanned multiple hazard categories were considered only for the binary (very toxic/nontoxic) end points and omitted from rendering a determination for hazard category assignment.
[…]The final data set comprising 11,992 chemicals was split into training and evaluation sets […], respectively. This process was performed semirandomly by ordering chemicals based on the five end points (categorical and continuous LD50 values) and partitioning every fourth record into the evaluation set accordingly. This approach was taken to ensure an equivalent distribution of the LD50 values and the different hazard categories between the training and the evaluation sets without supervised sampling of the chemicals based on structures (Figure 1A). The sources of the chemical structures were also kept equivalent between the two sets, with chemical structures obtained from DSSTox, being the highest quality, representing over 75% of each set (Figure 1B).

Row | SMILES | LD50
1 | CNC(=O)ON=C(C)C(C)SC (configuration not stated) | 153 mg/kg
2 | COCC(O)Cn1ccnc1[N+](=O)[O-] (configuration not stated) | 2130 mg/kg
3 | C[Si](Cn1cncn1)(c1ccc(F)cc1)c1ccc(F)cc1 | 674 mg/kg
4 | CCCCc1c(OC(=O)c2cccs2)n(-c2ccccc2)n(-c2ccccc2)c1=O | 1180 mg/kg
5 | O=C(O)CF | 4.68 mg/kg
6 | CCOP(=S)(OCC)Oc1ccc(N)cc1 | 450 mg/kg
7 | CCCCCN(C)N=O | 120 mg/kg
8 | CCCCC(CC)COC(=O)CCCCCCCCCCC(=O)OCC(CC)CCCC (configuration not stated) | 21500 mg/kg
9 | O=c1[nH]sc2ccccc12 | 1020 mg/kg
10 | CC(C)CCOC(CO)CC(C)C (configuration not stated) | 5410 mg/kg
11 | CC(C)NC1CCC(c2ccccc2)(c2ccccc2)CC1 | 623 mg/kg
12 | Fc1ccc2nc(C(F)(F)F)[nH]c2c1 | 16.6 mg/kg
13 | COC(CC(C)=O)OC | 6200 mg/kg
14 | CC1=[N+](C)C2CCC1(c1ccccc1)c1ccccc12 (configuration not stated) | 707 mg/kg
15 | CCOC(=O)CC(SP(=O)(OC)OC)C(=O)OCC (configuration not stated) | 158 mg/kg
16 | CNC(=O)Oc1cc(C)cc(C(C)C)c1 | 35 mg/kg
17 | CS(=O)CC(=O)c1ccccn1 (configuration not stated) | 6550 mg/kg
18 | CCC=C(C)CO | 4920 mg/kg
19 | CCCCN(N=O)C(N)=O | 400 mg/kg
20 | c1ccc(CNc2ncnc3c2NCN3)cc1 | 2100 mg/kg
21 | Clc1nc(Cl)c(Cl)c(Cl)c1Cl | 435 mg/kg
22 | O=C(CCCCC(=O)OC1CCCCC1)OC1CCCCC1 | 16000 mg/kg
23 | COP(=O)(Oc1ccc([N+](=O)[O-])c(C)c1)SC (configuration not stated) | 315 mg/kg

Row | SMILES | LD50
24 | COP(=S)(OC)Oc1ccc([N+](=O)[O-])c(SC(C)C)c1 | 1140 mg/kg
25 | COc1cc2[nH]c(=N)sc2cc1OC | 1160 mg/kg
26 | CCCCCCCCCCCCCCCCOC(=O)C1CC1 | 12200 mg/kg
27 | CC(=O)Nc1ccc(C)c(NS(=O)(=O)C(F)(F)F)c1 | 2580 mg/kg
28 | Cc1cc(Cl)cc2sc(-c3sc4cc(Cl)cc(C)c4c3OS(=O)(=O)O)c(OS(=O)(=O)O)c12 | 4360 mg/kg
29 | CCOP(=S)(OCC)SCCC(F)=C(F)F | 681 mg/kg
30 | OCCNCCc1ccccc1 | 1870 mg/kg
31 | CN1CCC2(C)c3cc(OC(=O)NCCCCCCCCN4CCSCC4)ccc3N(C)C12 (configuration not stated) | 23.8 mg/kg
32 | CCCCCCCCCCCCCCCCCOCC | 1260 mg/kg
33 | CCOc1ccccc1N1CCN(CCCc2ccc3c(c2)CCC(=O)N3)CC1 | 500 mg/kg
34 | O=C(OC1CC2CCC(C1)[N+]21CCCC1)C(O)(c1ccccc1)c1ccccc1 (configuration not stated) | 1500 mg/kg
35 | CCS(=O)(=O)CCO | 18000 mg/kg
36 | O=C(NNCS(=O)(=O)O)c1ccncc1 | 14400 mg/kg
37 | O=Cc1ccc(O)cc1O | 400 mg/kg
38 | CC(C)(C)[C@H](O)/C(=C\c1ccc(Cl)cc1)n1cncn1 | 430 mg/kg
39 | CCOC(=O)c1cnn(C)c1-n1c(CC)nc2ccccc2c1=O | 1820 mg/kg
40 | CCCC(=O)OC(=C(Cl)Cl)P(=O)(OC)OC | 1100 mg/kg
41 | O=C(NCC1CCCCN1)c1cc(OCC(F)(F)F)ccc1OCC(F)(F)F (configuration not stated) | 1350 mg/kg
42 | CCOP(=O)(OCC)SCCS(=O)CC (configuration not stated) | 2 mg/kg
43 | CN(N=O)C1CCS(=O)(=O)C1 (configuration not stated) | 750 mg/kg
44 | CN1CCC(N(Cc2cccs2)c2ccccc2)CC1 | 1060 mg/kg
45 | CCc1nc(N)nc(N)c1-c1ccc(Cl)cc1 | 440 mg/kg
46 | Cc1ccc(C#N)cc1 | 3800 mg/kg

Row | SMILES | LD50
47 | CCC(OC(N)=O)c1ccccc1Cl (configuration not stated) | 710 mg/kg
48 | CCOC(=O)c1noc(C)c1C(=O)c1ccccc1 | 1000 mg/kg
49 | CCN(CC)CCCC(C)Nc1c2cc(Cl)ccc2nc2ccc(OC)cc12 (configuration not stated) | 4400 mg/kg
50 | CCC/C=C/CO | 3500 mg/kg
51 | O=Cc1ccc(O)cc1 | 2250 mg/kg
52 | CCCCCCCCCCCCCCCCCCP(=O)(OC)OC | 15400 mg/kg
53 | OCCN1CC1 | 74 mg/kg
54 | CCC(=O)c1ccc2c(c1)N(CC(C)N(C)C)c1ccccc1S2 (configuration not stated) | 500 mg/kg
55 | CCOC(=O)c1ncn2c1CN(C)C(=O)c1cc(F)ccc1-2 | 4200 mg/kg
56 | CCc1ccc(CCO)nc1 | 4290 mg/kg
57 | CN1CCC(C=C2c3ccccc3CCc3ccccc32)C1 (configuration not stated) | 303 mg/kg
58 | Nc1ccc(S(=O)(=O)O)c(N)c1 | 3480 mg/kg
59 | CCO[Si](CC)(OCC)OCC | 14000 mg/kg
60 | Cc1cccc(C#N)c1C | 3000 mg/kg
61 | CC(C)=NN=C(C)C | 423 mg/kg
62 | O=C1CCOc2ccccc21 | 2650 mg/kg
63 | CCn1cc(C(=O)O)c(=O)c2cc3c(cc21)OCO3 | 525 mg/kg
64 | C1CCCNCC1 | 20.7 mg/kg
65 | CCOP(=S)(OCC)Sc1nc(C)cc(C)n1 | 59 mg/kg
66 | CCNC(=O)Cc1ccccc1 | 756 mg/kg
67 | CC(C=O)Cc1ccc(C(C)C)cc1 (configuration not stated) | 3810 mg/kg
